Assay: recombinant barcode read abundance after kanamycin selection (control-corrected) (log10(CPM+1)); higher = more efficient recombination; sequences stand for … in AGTGCAGAGAAAATCGGCCAGTTTTCTCTGCCTGCAGTCCGCATGCCGT…AGATTTATGCAGCGGACTGCCTTTCTCCCAAAGTGATAAACCGGACAGTATCATGGACCGGTTTTCCCGGTAATCCGTATTTGCAAGGTTGGTTTCACT; site = the 11-nt target
Method in brief: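 In E. coli, a pooled library matched targets to IS621 bridge RNA target-binding loops and was introduced alongside a donor plasmid. Cells went onto chloramphenicol/ampicillin/kanamycin with 0.1 mM IPTG or onto chloramphenicol/ampicillin LB agar as control, in duplicate. Recombination efficiency, from recombinant-junction barcodes as counts per million, is averaged and control-corrected. It is reported as log10(CPM+1).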
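Further: IS621 recombinase and bridge RNA in Escherichia coli cells.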

Point of comparison: “ATGAACACTTGGGTTCTAACCTGTTGCTG (site ATGAACACTCA)”, “recombinant barcode read abundance (log10)” value 1.95. Against it:
- ATCTATTCTTGGGTTCTAACCTGTTGCCT (site ATCGATGCTAG) — lower, 0.198
- ATCTATTCTTGGGTTCTAACCTGTTGCCT (site ATCTATTCTAG) — lower, 0.111
- ATGAACACTTGGGTTCTAACCTGTTGCTG (site TAATGGCCTTC) — lower, 0.0343
- ATGAGAGCTTGGGTTCTAACCTGTTGCCT (site ATAAGACCTAG) — lower, 0.324
- ATGAGAGCTTGGGTTCTAACCTGTTGCCT (site ATGAGAGCTAG) — lower, 1.05
- ATGAGGACTTGGGTTCTAACCTGTTGCCT (site ATGAGGACTAG) — within 0.2 log units, 1.84
- ATGAGGACTTGGGTTCTAACCTGTTGCCT (site CTGAGGACTAG) — lower, 0.362
- ATGAGGACTTGGGTTCTAACCTGTTGCCT (site GTGAGGACTAG) — lower, 0.12
- ATGAGGACTTGGGTTCTAACCTGTTGCCT (site TTGAGGACTAG) — lower, 0.246
- ATGAGGCCTTGGGTTCTAACCTGTTGCTA (site ATGAGGCCTTA) — lower, 0.739
- ATGAGGCCTTGGGTTCTAACCTGTTGCTA (site TCAGAAGCTCG) — lower, 0.159
- ATGATACCTTGGGTTCTAACCTGTTGCAT (site ATGATACCTAT) — lower, 1.71
- ATGATACCTTGGGTTCTAACCTGTTGCAT (site CCTGGGACTTA) — lower, 0.243
- ATGATATCTTGGGTTCTAACCTGTTGCCT (site AAGATATCTAG) — lower, 0.0255
- ATGATATCTTGGGTTCTAACCTGTTGCCT (site ACGATATCTAG) — lower, 0.43
- ATGATATCTTGGGTTCTAACCTGTTGCCT (site AGGATATCTAG) — lower, 0.181
- ATGATATCTTGGGTTCTAACCTGTTGCCT (site ATGATATCTAG) — lower, 1.5
- ATGCAATCTTGGGTTCTAACCTGTTGCCT (site ATGCAAACTAG) — lower, 0.104
- ATGCAATCTTGGGTTCTAACCTGTTGCCT (site ATGCAACCTAG) — lower, 0.197
- ATGCAATCTTGGGTTCTAACCTGTTGCCT (site ATGCAAGCTAG) — lower, 0.236
- ATGCAATCTTGGGTTCTAACCTGTTGCCT (site ATGCAATCTAG) — lower, 1.09
- ATGCGAGCTTGGGTTCTAACCTGTTGCGG (site ATGCGAGCTCA) — lower, 0.873
- ATGCGAGCTTGGGTTCTAACCTGTTGCGG (site ATGCGAGCTCC) — within 0.2 log units, 1.92
- ATGCGAGCTTGGGTTCTAACCTGTTGCGG (site ATGCGAGCTCG) — lower, 0.194
- ATGCGAGCTTGGGTTCTAACCTGTTGCGG (site ATGCGAGCTCT) — lower, 1.37
- ATGCGAGCTTGGGTTCTAACCTGTTGCTG (site ATGCGAGCTCA) — lower, 1.19
- ATGCGAGCTTGGGTTCTAACCTGTTGCTG (site ATGCGAGCTCC) — lower, 0.687
- ATGCGAGCTTGGGTTCTAACCTGTTGCTG (site ATGCGAGCTCG) — lower, 0.533
- ATGCGAGCTTGGGTTCTAACCTGTTGCTG (site ATGCGAGCTCT) — lower, 0.76
- ATGCGGTCTTGGGTTCTAACCTGTTGCCT (site ATGCGGTCTAG) — within 0.2 log units, 2.02
- ATGCGGTCTTGGGTTCTAACCTGTTGCCT (site CTGCGGTCTAT) — lower, 0.112
